# Experimental data from patent US4992257A, “Dihydroporphyrins and method of treating tumors” (Efamol Holdings PLC, priority 1988, dated 1991).
# Tests used:
# PC6 plasma cell tumour = assay: Tumour photo-necrosis: depth of tumour necrosis after sensitiser injection and 10 J cm^-2 light; format: in vivo, female BALB/c mice; settings: mean ± SE
# Method: (§1) the method of testing is that the PC6 plasma cell tumour, obtained initially from the Chester Beatty Research Institute, was grown by inoculating 0.3-0.6×10^6 cells subcutaneously in female BALB/c mice. It was used about two weeks later, when it was […] in its longest diameter and […] deep. Sensitisers were injected in dimethyl sulphoxide intra-peritoneally (2.5 ul g^-1) and, twenty four hours later, skin over the tumours was depilated, the mice anaesthetised and tumours exposed to 10 J cm^-2 light. Wavelengths for illumination were the longest wavelength absorption peaks in the red in solutions of sensitiser in fetal calf serum, and were 652-653 nm for the compounds of Examples 1 to 3 and 741 nm for the compound of Example 4. The light source was a copper vapour laser with an output of 10 to 12 watts (Cu 10 laser, Oxford Lasers Ltd) pumping a D2 10K dye laser (Oxford Lasers Ltd). The dye was rhodamine 640 (Applied Photophysics Ltd) for illumination at 652-653 nm and LDS-722 for illumination at 741 nm. Light intensity at the tumour surface was kept below 0.3 W cm^-2, where thermal effects were undetectable.
# Twenty four hours after illumination […], 0.2 ml 1% Evans blue (Sigma) in saline was given intravenously and tumours were removed one hour later and fixed in formolsaline. The fixed tumours were sliced at right angles to the surface and the depth of necrosis measured with a dissecting microscope fitted with an eye piece graticule.
# Tumour = assay: Degree of tumour necrosis obtained at an equivalent muscle damage level; format: in vivo; settings: for tumour necrosis for specified levels of muscle damage, in words: versus corresponding compounds of EP-A-0,186,962
# Source text: (§2) In preliminary tests the new compounds have shown similar results as regards skin sensitivity to those given in EP-A-0,186,962. Moreover, the para and meta dihydroxy compounds have been shown specifically, improved properties in other respects which may be expected in all the compounds.
# [1] = Muscle oedema (muscle damage) for specified depths of tumour necrosis; format: in vivo; settings: for muscle damage for specified levels of tumour necrosis, in words: versus corresponding compounds of EP-A-0,186,962
# Source text: as §2
# [2] = Longest wavelength absorption peak in the red in fetal calf serum; format: physicochemical; settings: in solutions of sensitiser in fetal calf serum
# Method: as §1
# [3] = at muscle oedema 10% increase in muscle weight
# [4] = at muscle oedema 20% increase in muscle weight
# [5] = at depth of tumour necrosis 3.0 mm
# [6] = at depth of tumour necrosis 3.5 mm
# [7] = at depth of tumour necrosis 4.0 mm
# [8] = at depth of tumour necrosis 5.0 mm
# [9] = at depth of tumour necrosis 5.5 mm
structure (smiles),measurement,setting,value
"Oc1ccccc1-c1c2nc(c(-c3ccccc3O)c3ccc([nH]3)c(-c3ccccc3O)c3nc(c(-c4ccccc4O)c4[nH]c1CC4)C=C3)C=C2 [Example 3, 2,3-dihydro-5,10,15,20-tetra (o-hydroxyphenyl) porphyrin]",Depth of Tumour Necrosis,"PC6 plasma cell tumour; dose 3.125 μM/Kg i.p., 652 nm",3.69 ± 0.74 mm
same,Depth of Tumour Necrosis,"PC6 plasma cell tumour; dose 6.25 μM/Kg i.p., 652 nm",4.16 ± 0.27 mm
"Oc1ccc(-c2c3nc(c(-c4ccc(O)cc4)c4ccc([nH]4)c(-c4ccc(O)cc4)c4nc(c(-c5ccc(O)cc5)c5ccc2[nH]5)C=C4)C=C3)cc1 [Para (Compounds of EP-A-0186962), 5,10,15,20-Tetra(p-hydroxyphenyl)porphyrin, reference compound]",Tumour Necrosis,Tumour; [3],2.25 mm
same,Tumour Necrosis,Tumour; [4],3.0 mm
same,Muscle Oedema (% Increase in Weight),[1]; [5],20%
same,Muscle Oedema (% Increase in Weight),[1]; [6],22%
"Oc1cccc(-c2c3nc(c(-c4cccc(O)c4)c4ccc([nH]4)c(-c4cccc(O)c4)c4nc(c(-c5cccc(O)c5)c5ccc2[nH]5)CC4)CC3)c1 [Example 4, 7,8,17,18-tetrahydro-5,10,15,20-tetra(m-hydroxyphenyl) porphyrin]",Depth of Tumour Necrosis,"PC6 plasma cell tumour; dose 0.39 μM/Kg i.p., 741 nm",5.22 ± 1.21 mm
same,longest wavelength absorption peak in the red,[2],741 nm
"Oc1cccc(-c2c3nc(c(-c4cccc(O)c4)c4ccc([nH]4)c(-c4cccc(O)c4)c4nc(c(-c5cccc(O)c5)c5[nH]c2CC5)C=C4)C=C3)c1 [Example 2, 2,3-dihydro-5,10,15,20-tetra(m-hydroxyphenyl) porphyrin]",Depth of Tumour Necrosis,"PC6 plasma cell tumour; dose 0.375 μM/Kg i.p., 652 nm",3.79 ± 0.28 mm
same,Depth of Tumour Necrosis,"PC6 plasma cell tumour; dose 0.75 μM/Kg i.p., 652 nm",5.41 ± 0.39 mm
same,Tumour Necrosis,Tumour; [3],5.5-6 mm
same,Tumour Necrosis,Tumour; [4],6.5 mm
same,"tumour necrosis for specified levels of muscle damage, in words",Tumour,"more tumour necrosis than the corresponding compounds of EP-A-0,186,962"
same,Muscle Oedema (% Increase in Weight),[1]; [6],2%
same,Muscle Oedema (% Increase in Weight),[1]; [7],3%
same,Muscle Oedema (% Increase in Weight),[1]; [8],5%
same,Muscle Oedema (% Increase in Weight),[1]; [9],7%
same,"muscle damage for specified levels of tumour necrosis, in words",[1],"considerably less muscle damage than the corresponding compounds of EP-A-0,186,962"
"Oc1ccc(-c2c3nc(c(-c4ccc(O)cc4)c4ccc([nH]4)c(-c4ccc(O)cc4)c4nc(c(-c5ccc(O)cc5)c5ccc2[nH]5)CC4)C=C3)cc1 [Example 1, 2,3-dihydro-5,10,15,20-tetra(p-hydroxyphenyl) porphyrin]",Depth of Tumour Necrosis,"PC6 plasma cell tumour; dose 3.125 μM/Kg i.p., 653 nm",2.13 ± 0.50 mm
same,Depth of Tumour Necrosis,"PC6 plasma cell tumour; dose 6.25 μM/Kg i.p., 653 nm",3.50 ± 0.54 mm
same,Tumour Necrosis,Tumour; [3],3.5 mm
same,Tumour Necrosis,Tumour; [4],~4.0 mm
same,"tumour necrosis for specified levels of muscle damage, in words",Tumour,"more tumour necrosis than the corresponding compounds of EP-A-0,186,962"
same,Muscle Oedema (% Increase in Weight),[1]; [5],8%
same,Muscle Oedema (% Increase in Weight),[1]; [6],10%
same,"muscle damage for specified levels of tumour necrosis, in words",[1],"considerably less muscle damage than the corresponding compounds of EP-A-0,186,962"
"Oc1cccc(-c2c3nc(c(-c4cccc(O)c4)c4ccc([nH]4)c(-c4cccc(O)c4)c4nc(c(-c5cccc(O)c5)c5ccc2[nH]5)C=C4)C=C3)c1 [Meta (Compounds of EP-A-0186962), 5,10,15,20-tetra(m-hydroxyphenyl) porphyrin, reference compound]",Tumour Necrosis,Tumour; [3],3.5 mm
same,Tumour Necrosis,Tumour; [4],4.0 mm
same,Muscle Oedema (% Increase in Weight),[1]; [6],10%
same,Muscle Oedema (% Increase in Weight),[1]; [7],20%
same,Muscle Oedema (% Increase in Weight),[1]; [8],36%
same,Muscle Oedema (% Increase in Weight),[1]; [9],49%
